Results from patent publication US20120270844A1, “METHODS FOR TREATING ALZHEIMER'S DISEASE” (aFRAXis, Inc., priority 2009, published 2012).

Legend:
Assay type in all cases: biochemical
PAK1 = PAK1 (Homo sapiens, UniProt Q13153); assay: Z'Lyte fluorescence-based (FRET) PAK kinase assay, PAK1; details: 50 μM ATP
Protocol: (§1) A fluorescence-based assay format is used to determine IC50 values of test compounds in vitro. Purified PAK kinase is incubated with ATP, and a test compound at various concentrations and a substrate peptide containing two fluorophores. In a second step, the reaction mix is incubated with a site-specific protease that cleaves non-phosphorylated bat not phosphorylated substrate peptide, disrupting the FRET signal generated by the two fluorophores in the cleaved peptide (Z′Lyte™ Kinase assay platform; Life Technologies).
(§2) Reagents: 50 mM HEPES, pH 7.5; 0.01% BRIJ-35; 10 nM MgCl1; 1 mM EGTA, 2 uM substrate peptide Ser/Thr20 (proprietary Life Technologies Sequence), PAK enzyme [2.42-30.8 ng for PAK1, 0.29-6 ng for PAK2, 1.5-20 ng for PAK3 and 0.1-0.86 ng for PAK4; actual enzyme amounts depend on lot activity of the enzyme preparation]
(§3) Test compounds are dissolved in DMSO at various concentrations; the final DMSO concentration in the assay reaction is 1%.
(§4) ATP concentration at Kin apparent is used in the assay [50 ┌M ATP for PAK1 assay, 75 ┌M ATP for PAK2 assay, 100 μM ATP for PAK3 assay, 5 μM ATP for PAK4 assay] in a total assay volume of 10 μl. Assay reactions are incubated at room temperature for 1 hr. Following the kinase reaction, 5 μl of 1:256 dilution of development solution A (Life Technologies) is added and the reaction mix is incubated for an additional 1 hr at room temperature.
(§5) Plates are analyzed in a standard fluorescence plate reader (Tecan or equivalent) using an excitation wavelength of 400 nn and emission wavelengths of 445 nm and 520 nm.
(§6) Inhibition of kinase reaction is determined by emission ratio=emission@445 nm/emission@520 nm
as §1, with “non-phosphorylated but” for “non-phosphorylated bat”, “peptide (Z'Lyte™” for “peptide (Z′Lyte™”, “assay platform” for “assay platform;”
as §2, with “mM MgCl2;” for “nM MgCl1;”
as §4, with “at Km” for “at Kin”, “[50 μMATP” for “[50 ┌M ATP”, “75 µM” for “75 ┌M”, “[…]” for “10 μl.”, “kinase reaction.” for “kinase reaction,”, “[…]” for “5 μl”
(§7) Plates are analyzed in a standard fluorescence plate reader (Teem or equivalent) using an excitation wavelength of 400 nm and emission wavelengths of 445 nm and 520 nm.

PAK2 = PAK2 (Homo sapiens, UniProt Q13177); assay: Z'Lyte fluorescence-based (FRET) PAK kinase assay, PAK2
Sequence of PAK2 (Q13177 whole entry): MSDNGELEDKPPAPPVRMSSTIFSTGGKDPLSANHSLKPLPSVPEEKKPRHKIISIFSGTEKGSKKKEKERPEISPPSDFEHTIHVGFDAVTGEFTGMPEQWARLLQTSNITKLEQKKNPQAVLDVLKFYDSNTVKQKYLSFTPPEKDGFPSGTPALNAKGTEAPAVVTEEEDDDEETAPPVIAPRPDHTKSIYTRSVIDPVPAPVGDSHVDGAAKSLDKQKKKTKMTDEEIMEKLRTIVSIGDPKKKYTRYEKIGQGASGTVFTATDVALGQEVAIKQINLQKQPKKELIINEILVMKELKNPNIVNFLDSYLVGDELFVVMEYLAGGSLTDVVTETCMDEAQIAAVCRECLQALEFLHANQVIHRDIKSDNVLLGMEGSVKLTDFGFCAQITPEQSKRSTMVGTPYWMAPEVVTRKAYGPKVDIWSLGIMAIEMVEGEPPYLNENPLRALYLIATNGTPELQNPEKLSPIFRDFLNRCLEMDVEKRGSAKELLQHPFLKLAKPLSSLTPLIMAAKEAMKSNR
Protocol: as §1, §2, §3, §4, §5, §6
as §1, with “non-phosphorylated but” for “non-phosphorylated bat”, “peptide (Z'Lyte™” for “peptide (Z′Lyte™”, “assay platform” for “assay platform;”
as §2, with “mM MgCl2;” for “nM MgCl1;”
as §4, with “at Km” for “at Kin”, “[50 μMATP” for “[50 ┌M ATP”, “75 µM” for “75 ┌M”, “[…]” for “10 μl.”, “kinase reaction.” for “kinase reaction,”, “[…]” for “5 μl”
as §7

PAK4 = PAK4 (Homo sapiens, UniProt O96013); assay: Z'Lyte fluorescence-based (FRET) PAK kinase assay, PAK4; details: 5 μM ATP
Sequence of PAK4 (O96013 whole entry): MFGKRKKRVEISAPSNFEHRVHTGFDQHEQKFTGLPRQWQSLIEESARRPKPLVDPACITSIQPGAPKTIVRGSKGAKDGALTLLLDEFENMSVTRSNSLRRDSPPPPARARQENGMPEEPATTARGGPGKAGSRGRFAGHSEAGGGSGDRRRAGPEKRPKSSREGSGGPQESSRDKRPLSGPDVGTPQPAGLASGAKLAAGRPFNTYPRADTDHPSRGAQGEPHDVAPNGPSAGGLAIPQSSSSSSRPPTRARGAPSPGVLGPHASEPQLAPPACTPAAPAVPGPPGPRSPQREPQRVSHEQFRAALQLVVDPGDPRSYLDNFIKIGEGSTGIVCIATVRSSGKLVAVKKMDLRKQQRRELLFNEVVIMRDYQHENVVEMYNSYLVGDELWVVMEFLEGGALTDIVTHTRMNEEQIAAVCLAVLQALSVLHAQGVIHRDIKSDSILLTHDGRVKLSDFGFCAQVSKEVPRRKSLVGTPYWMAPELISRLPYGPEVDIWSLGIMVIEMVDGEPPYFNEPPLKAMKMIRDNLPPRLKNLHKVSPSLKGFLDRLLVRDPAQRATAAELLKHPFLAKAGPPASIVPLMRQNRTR
Protocol: as §1, §2, §3, §4, §5, §6
as §1, with “non-phosphorylated but” for “non-phosphorylated bat”, “peptide (Z'Lyte™” for “peptide (Z′Lyte™”, “assay platform” for “assay platform;”
as §2, with “mM MgCl2;” for “nM MgCl1;”
as §4, with “at Km” for “at Kin”, “[50 μMATP” for “[50 ┌M ATP”, “75 µM” for “75 ┌M”, “[…]” for “10 μl.”, “kinase reaction.” for “kinase reaction,”, “[…]” for “5 μl”
as §7

[1] = Table 1 of Example 100, 75 μM ATP
[2] = Table 1 of Example 29 (own compound numbering)

Sequence of PAK1 (Q13153 whole entry): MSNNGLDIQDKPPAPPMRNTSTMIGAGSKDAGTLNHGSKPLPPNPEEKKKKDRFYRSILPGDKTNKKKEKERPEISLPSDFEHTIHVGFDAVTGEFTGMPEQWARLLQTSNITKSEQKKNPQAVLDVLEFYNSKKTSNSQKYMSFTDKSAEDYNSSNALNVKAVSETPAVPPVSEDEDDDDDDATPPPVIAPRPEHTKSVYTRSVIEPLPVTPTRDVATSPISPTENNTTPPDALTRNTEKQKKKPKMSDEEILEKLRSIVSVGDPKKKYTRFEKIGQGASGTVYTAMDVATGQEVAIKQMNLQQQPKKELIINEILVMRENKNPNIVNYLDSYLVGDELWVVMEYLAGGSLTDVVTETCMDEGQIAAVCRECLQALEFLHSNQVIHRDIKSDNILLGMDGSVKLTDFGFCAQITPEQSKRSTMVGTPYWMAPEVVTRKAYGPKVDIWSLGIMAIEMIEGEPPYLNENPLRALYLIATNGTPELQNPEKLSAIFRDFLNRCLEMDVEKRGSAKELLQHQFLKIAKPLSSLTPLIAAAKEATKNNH

SMILES	IC50 (PAK1; Table 1 of Example 100) [nM]	IC50 (PAK2; [1]) [nM]	IC50 (PAK4; Table 1 of Example 100) [nM]	IC50 (PAK1; [2]) [nM]	IC50 (PAK4; [2]) [nM]	IC50 (PAK2; Table 1 of Example 29 (own compound numbering), 75 µM ATP) [nM]
CN1CCN(c2ccc(Nc3ncc4ccc(=O)n(Cc5ccc(F)cc5)c4n3)cc2)CC1 [Compound 28]	1000 to 10000	> 10000	> 10000	–	–	–
CN1CCN(c2ccc(Nc3ncc4ccc(=O)n(Cc5ccccc5)c4n3)cc2)CC1 [compound 80]	–	–	–	1000 to 10000	> 10000	1000 to 10000
CN(C)CCNc1ccc(Nc2ncc3ccc(=O)n(C4CCCC4)c3n2)cc1 [Compound 4]	1000 to 10000	1000 to 10000	1000 to 10000	–	–	–
CN1CCN(c2ccc(Nc3ncc4ccc(=O)n(Cc5ccccn5)c4n3)cc2)CC1 [Compound 36]	1000 to 10000	> 10000	1000 to 10000	–	–	–
COc1ccc(Cn2c(=O)ccc3cnc(Nc4ccc(N5CCN(C)CC5)cc4)nc32)cc1 [Compound 29]	> 10000	> 10000	> 10000	–	–	–
COc1cccc(Cn2c(=O)ccc3cnc(Nc4ccc(N5CCN(C)CC5)cc4)nc32)c1 [Compound 33]	1000 to 10000	> 10000	> 10000	–	–	–
COc1ccc(Cn2c(=O)ccc3cnc(Nc4ccc(N5CCN(C)CC5)cc4)nc32)cc1 [compound 83]	–	–	–	> 10000	> 10000	–
CN1CCN(c2ccc(Nc3ncc4ccc(=O)n(Cc5ccccc5OC(F)(F)F)c4n3)cc2)CC1 [Compound 41]	< 1000	< 1000	1000 to 10000	–	–	–
CN1CCN(c2ccc(Nc3ncc4ccc(=O)n(Cc5ccc(Cl)cc5)c4n3)cc2)CC1 [Compound 30]	1000 to 10000	> 10000	> 10000	–	–	–
CN1CCN(c2ccc(Nc3ncc4ccc(=O)n(Cc5cccc(F)c5)c4n3)cc2)CC1 [Compound 27]	1000 to 10000	1000 to 10000	1000 to 10000	–	–	–
CN(C)CC(c1ccccc1)n1c(=O)ccc2cnc(Nc3ccc(N4CCN(C)CC4)cc3)nc21 (centres unmarked) [compound 75]	–	–	–	> 10000	> 10000	–
CN1CCN(c2ccc(Nc3ncc4ccc(=O)n(Cc5ccccc5F)c4n3)cc2)CC1 [Compound 35]	1000 to 10000	1000 to 10000	1000 to 10000	–	–	–
CN1CCN(c2ccc(Nc3ncc4ccc(=O)n(Cc5ccccc5C#N)c4n3)cc2)CC1 [Compound 40]	< 1000	< 1000	1000 to 10000	–	–	–
CN(C)CC(c1ccccc1)n1c(=O)ccc2cnc(Nc3ccc(N4CCOCC4)cc3)nc21 (centres unmarked) [compound 72]	–	–	–	> 10000	> 10000	–
COc1ccccc1Cn1c(=O)ccc2cnc(Nc3ccc(N4CCN(C)CC4)cc3)nc21 [Compound 34]	< 1000	1000 to 10000	1000 to 10000	–	–	–
CN1CCN(c2ccc(Nc3ncc4ccc(=O)n(Cc5ccccc5)c4n3)cc2)CC1 [Compound 26]	–	1000 to 10000	–	–	–	–
CN1CCN(c2ccc(Nc3ncc4ccc(=O)n(Cc5ccc(Cl)cc5)c4n3)cc2)CC1 [compound 84]	–	–	–	1000 to 10000	> 10000	–
CN1CCN(c2ccc(Nc3ncc4ccc(=O)n([C@@H]5CCCc6ccccc65)c4n3)cc2)CC1 [compound 66]	–	–	–	1000 to 10000	1000 to 10000	–
Cc1cc(F)ccc1Cn1c(=O)ccc2cnc(Nc3ccc(N4CCN(C)CC4)cc3)nc21 [compound 99]	–	–	–	1000 to 10000	1000 to 10000	–
CN1CCN(c2ccc(Nc3ncc4ccc(=O)n(Cc5ccc(F)cc5)c4n3)cc2)CC1 [compound 82]	–	–	–	1000 to 10000	> 10000	–
CN1CCN(c2ccc(Nc3ncc4ccc(=O)n(Cc5ccncc5)c4n3)cc2)CC1 [compound 91]	–	–	–	1000 to 10000	> 10000	–
CN1CCN(c2ccc(Nc3ncc4ccc(=O)n(Cc5cccnc5)c4n3)cc2)CC1 [compound 92]	–	–	–	1000 to 10000	> 10000	–
COc1ccccc1Cn1c(=O)ccc2cnc(Nc3ccc(N4CCN(C)CC4)cc3)nc21 [compound 88]	–	–	–	< 1000	1000 to 10000	–

More lines, main results first:

IC50 (PAK1; Table 1 of Example 100) [nM]	IC50 (PAK2; [1]) [nM]	IC50 (PAK4; Table 1 of Example 100) [nM]	IC50 (PAK1; [2]) [nM]	IC50 (PAK4; [2]) [nM]	SMILES	IC50 (PAK2; Table 1 of Example 29 (own compound numbering), 75 µM ATP) [nM]
–	–	–	< 1000	< 1000	O=c1ccc2cnc(Nc3ccc(N4CCNCC4)c(F)c3)nc2n1C1Cc2ccccc2C1 [compound 77]	–
–	–	–	< 1000	1000 to 10000	CN1CCN(c2ccc(Nc3ncc4ccc(=O)n(Cc5ccccc5Cl)c4n3)cc2)CC1 [compound 85]	–
–	–	–	1000 to 10000	1000 to 10000	Cc1ccc(C)c(Cn2c(=O)ccc3cnc(Nc4ccc(N5CCN(C)CC5)cc4)nc32)c1 [compound 100]	–
–	–	–	> 10000	1000 to 10000	O=c1ccc2cnc(Nc3ccc(N4CCOCC4)cc3)nc2n1C1CCCC1 [compound 58]	–
–	–	–	< 1000	1000 to 10000	CN1CCN(c2ccc(Nc3ncc4ccc(=O)n(C5CCCc6ccccc65)c4n3)cc2)CC1 (centres unmarked) [compound 67]	–
–	–	–	< 1000	1000 to 10000	CN1CCN(c2ccc(Nc3ncc4ccc(=O)n(C5CCCC5)c4n3)cc2)CC1 [compound 57]	–
–	–	–	< 1000	< 1000	CN1CCN(c2ccc(Nc3ncc4ccc(=O)n(Cc5ccccc5C(F)(F)F)c4n3)cc2)CC1 [compound 96]	–
–	–	–	< 1000	< 1000	CN1CCN(c2ccc(Nc3ncc4ccc(=O)n(C5Cc6ccccc6C5)c4n3)cc2)CC1 [compound 73]	–
–	–	–	1000 to 10000	1000 to 10000	CN1CCN(c2ccc(Nc3ncc4ccc(=O)n(Cc5ccccn5)c4n3)cc2)CC1 [compound 90]	–
–	–	–	< 1000	< 1000	O=c1ccc2cnc(Nc3ccc(NC4CCCNC4)cc3)nc2n1Cc1ccccc1C(F)(F)F (centres unmarked) [compound 63]	–
–	–	–	< 1000	< 1000	O=c1ccc2cnc(Nc3ccc(N4CCNCC4)c(F)c3)nc2n1C1CCc2ccccc2C1 (centres unmarked) [compound 78]	–
–	–	–	< 1000	< 1000	O=c1ccc2cnc(Nc3ccc(OC4CCCNC4)cc3)nc2n1Cc1ccccc1C(F)(F)F (centres unmarked) [compound 70]	–
–	–	–	> 10000	1000 to 10000	CN(C)c1ccc(Nc2ncc3ccc(=O)n(C4CCCC4)c3n2)cc1 [compound 59]	–
–	–	–	1000 to 10000	1000 to 10000	CN(C)CCNc1ccc(Nc2ncc3ccc(=O)n(C4CCCC4)c3n2)cc1 [compound 60]	–
–	–	–	< 1000	1000 to 10000	CN1CCN(c2ccc(Nc3ncc4ccc(=O)n(Cc5ccccc5C#N)c4n3)cc2)CC1 [compound 94]	–
–	–	–	< 1000	< 1000	O=c1ccc2cnc(Nc3ccc(NC4CCNCC4)cc3)nc2n1Cc1ccccc1C(F)(F)F [compound 64]	–
–	–	–	< 1000	1000 to 10000	CN1CCN(c2ccc(Nc3ncc4ccc(=O)n(Cc5ccccc5OC(F)(F)F)c4n3)cc2)CC1 [compound 95]	–
–	–	–	–	1000 to 10000	Cc1ccccc1Cn1c(=O)ccc2cnc(Nc3ccc(N4CCN(C)CC4)cc3)nc21 [compound 93]	–
–	–	–	1000 to 10000	1000 to 10000	CN1CCN(c2ccc(Nc3ncc4ccc(=O)n(C5CCOc6ccccc65)c4n3)cc2)CC1 (centres unmarked) [compound 71]	–
–	–	–	< 1000	1000 to 10000	CN1CCN(c2ccc(Nc3ncc4ccc(=O)n(C5CCc6ccccc65)c4n3)cc2)CC1 (centres unmarked) [compound 62]	–
–	–	–	1000 to 10000	1000 to 10000	CN1CCN(c2ccc(Nc3ncc4ccc(=O)n(Cc5ccccc5F)c4n3)cc2)CC1 [compound 89]	–
–	–	–	< 1000	< 1000	CN1CCN(c2ccc(Nc3ncc4ccc(=O)n(C5CCc6ccccc6C5)c4n3)cc2)CC1 (centres unmarked) [compound 74]	–
–	–	–	< 1000	< 1000	O=c1ccc2cnc(Nc3ccc(OC4CCNCC4)cc3)nc2n1Cc1ccccc1C(F)(F)F [compound 68]	–
–	–	–	< 1000	< 1000	CN1CCN(c2ccc(Nc3ncc4ccc(=O)n(Cc5ccccc5OC(F)F)c4n3)cc2)CC1 [compound 98]	–
